Results reported in the NIST ThermoML archive (doi:10.1016/j.fluid.2017.09.014).
Numbers after ± are expanded uncertainties.

Assay: xn = mol fraction of the nth substance listed
Details: Vibrating tube method, x2 = 0.9503

O=S=O [sulfur dioxide] + O=C=O
Details	mass density [kg/m3]
272.65 K, 226 kPa, Gas	4.8 ± 0.2
272.65 K, 407 kPa, Gas	8.5 ± 0.2
272.65 K, 503 kPa, Gas	10.6 ± 0.2
272.65 K, 752 kPa, Gas	16.2 ± 0.2
272.65 K, 1013 kPa, Gas	22.1 ± 0.2
272.65 K, 1252 kPa, Gas	27.9 ± 0.2
272.65 K, 1506 kPa, Gas	34.4 ± 0.2
272.65 K, 1752 kPa, Gas	40.9 ± 0.4
272.65 K, 1998 kPa, Gas	47.9 ± 0.4
273.54 K, 25506 kPa, Liquid	1065.1 ± 0.4
273.54 K, 26999 kPa, Liquid	1069.9 ± 0.4
273.54 K, 29024 kPa, Liquid	1076.3 ± 0.4
273.54 K, 29514 kPa, Liquid	1077.7 ± 0.4
273.54 K, 30524 kPa, Liquid	1080.9 ± 0.4
273.54 K, 31975 kPa, Liquid	1085.1 ± 0.5
273.54 K, 32491 kPa, Liquid	1086.7 ± 0.6
273.54 K, 33027 kPa, Liquid	1088.3 ± 0.5
273.54 K, 33521 kPa, Liquid	1089.7 ± 0.5
273.54 K, 34032 kPa, Liquid	1091.1 ± 0.5
273.54 K, 34491 kPa, Liquid	1092.3 ± 0.5
273.54 K, 35043 kPa, Liquid	1093.9 ± 0.6
273.54 K, 35534 kPa, Liquid	1095.1 ± 0.5
273.54 K, 36045 kPa, Liquid	1096.7 ± 0.5
273.54 K, 36490 kPa, Liquid	1097.6 ± 0.5
273.54 K, 37047 kPa, Liquid	1099 ± 0.5
273.54 K, 37529 kPa, Liquid	1100.5 ± 0.5
273.54 K, 38033 kPa, Liquid	1101.8 ± 0.5
273.54 K, 38558 kPa, Liquid	1103.1 ± 0.5
273.54 K, 41723 kPa, Liquid	1110.7 ± 0.5
273.55 K, 20535 kPa, Liquid	1047.9 ± 0.4
273.55 K, 24032 kPa, Liquid	1060.4 ± 0.6
273.55 K, 24523 kPa, Liquid	1061.9 ± 0.4
273.55 K, 25039 kPa, Liquid	1063.6 ± 0.6
273.55 K, 26016 kPa, Liquid	1066.9 ± 0.6
273.55 K, 26484 kPa, Liquid	1068.3 ± 0.4
273.55 K, 27554 kPa, Liquid	1071.7 ± 0.4
273.55 K, 28041 kPa, Liquid	1073 ± 0.6
273.55 K, 28539 kPa, Liquid	1074.9 ± 0.4
273.55 K, 30026 kPa, Liquid	1079.4 ± 0.6
273.55 K, 30952 kPa, Liquid	1082.2 ± 0.4
273.55 K, 31482 kPa, Liquid	1083.6 ± 0.5
273.55 K, 38992 kPa, Liquid	1104 ± 0.5
273.55 K, 39553 kPa, Liquid	1105.7 ± 0.5
273.55 K, 40023 kPa, Liquid	1106.6 ± 0.3
273.55 K, 40508 kPa, Liquid	1107.8 ± 0.5
273.55 K, 41016 kPa, Liquid	1109 ± 0.5
273.56 K, 12509 kPa, Liquid	1014.7 ± 0.6
273.56 K, 13012 kPa, Liquid	1017.2 ± 0.6
273.56 K, 13506 kPa, Liquid	1019.3 ± 0.6
273.56 K, 17514 kPa, Liquid	1036.2 ± 0.6
273.56 K, 18049 kPa, Liquid	1038.2 ± 0.6
273.56 K, 18515 kPa, Liquid	1040.1 ± 0.6
273.56 K, 19000 kPa, Liquid	1042.1 ± 0.6
273.56 K, 19509 kPa, Liquid	1044 ± 0.4
273.56 K, 20028 kPa, Liquid	1046 ± 0.6
273.56 K, 21029 kPa, Liquid	1049.7 ± 0.6
273.56 K, 21519 kPa, Liquid	1051.3 ± 0.6
273.56 K, 21993 kPa, Liquid	1053 ± 0.6
273.56 K, 22501 kPa, Liquid	1054.9 ± 0.4
273.56 K, 23496 kPa, Liquid	1058.4 ± 0.6
273.56 K, 41601 kPa, Liquid	1110.4 ± 0.5
273.57 K, 9944 kPa, Liquid	1001.9 ± 0.6
273.57 K, 10516 kPa, Liquid	1004.5 ± 0.8
273.57 K, 11003 kPa, Liquid	1007 ± 0.6
273.57 K, 11502 kPa, Liquid	1009.5 ± 0.6
273.57 K, 12005 kPa, Liquid	1012.2 ± 0.6
273.57 K, 14518 kPa, Liquid	1023.6 ± 0.6
273.57 K, 14951 kPa, Liquid	1025.4 ± 0.6
273.57 K, 15999 kPa, Liquid	1029.8 ± 0.6
273.57 K, 16500 kPa, Liquid	1031.9 ± 0.6
273.57 K, 17024 kPa, Liquid	1034.2 ± 0.6
273.57 K, 23015 kPa, Liquid	1056.6 ± 0.6
273.58 K, 8503 kPa, Liquid	993.8 ± 0.8
273.58 K, 9008 kPa, Liquid	996.7 ± 0.8
273.58 K, 9518 kPa, Liquid	999.7 ± 0.8
273.58 K, 15602 kPa, Liquid	1028.1 ± 0.6
273.6 K, 4001 kPa, Liquid	964.9 ± 1
273.6 K, 5521 kPa, Liquid	975.5 ± 0.8
273.6 K, 6005 kPa, Liquid	978.7 ± 0.8
273.6 K, 6503 kPa, Liquid	981.9 ± 0.8
273.6 K, 7034 kPa, Liquid	984.6 ± 0.8
273.6 K, 7688 kPa, Liquid	987.5 ± 0.8
273.6 K, 8003 kPa, Liquid	990.6 ± 0.8
273.61 K, 4518 kPa, Liquid	968.2 ± 0.8
273.61 K, 5013 kPa, Liquid	972.1 ± 0.8
282.65 K, 800 kPa, Gas	16.5 ± 0.2
282.65 K, 1249 kPa, Gas	26.3 ± 0.2
282.66 K, 120 kPa, Gas	2.5 ± 0.2
282.66 K, 211 kPa, Gas	4.3 ± 0.2
282.66 K, 301 kPa, Gas	6.1 ± 0.2
282.66 K, 408 kPa, Gas	8.5 ± 0.2
282.66 K, 511 kPa, Gas	10.6 ± 0.2
282.66 K, 608 kPa, Gas	12.3 ± 0.2
282.66 K, 1009 kPa, Gas	21.1 ± 0.2
282.66 K, 1509 kPa, Gas	32.8 ± 0.2
282.66 K, 1705 kPa, Gas	37.5 ± 0.2
282.66 K, 1909 kPa, Gas	42.7 ± 0.2
282.66 K, 2010 kPa, Gas	45.2 ± 0.2
282.66 K, 2199 kPa, Gas	50.5 ± 0.4
282.66 K, 2508 kPa, Gas	59.6 ± 0.4
282.66 K, 2702 kPa, Gas	65.5 ± 0.4
282.66 K, 3008 kPa, Gas	76 ± 0.4
283.31 K, 27537 kPa, Liquid	1038.9 ± 0.4
283.31 K, 34500 kPa, Liquid	1062.8 ± 0.4
283.31 K, 35516 kPa, Liquid	1065.8 ± 0.4
283.31 K, 36037 kPa, Liquid	1067.5 ± 0.4
283.31 K, 36515 kPa, Liquid	1068.6 ± 0.4
283.31 K, 37578 kPa, Liquid	1072.1 ± 0.4
283.31 K, 38061 kPa, Liquid	1073.3 ± 0.4
283.32 K, 5005 kPa, Liquid	910.4 ± 1.2
